Data published in ChEMBL document CHEMBL3997788, “Virtual screening and experimental validation identify novel modulators of nuclear receptor RXRα from Drugbank database” (Bioorg Med Chem Lett, 2017).
The source made the active and inactive calls. The calls are words filed in the database; no cut-off is given here.

Key:
[1] = molecular target: T1, Retinoic acid receptor RXR-alpha (Homo sapiens) (UniProt P19793); test: Agonist activity at Myc-tagged RXRalpha (unknown origin) expressed in human MCF-7 cells assessed as increase in 9-cis-RA induced receptor transactivation at 1 uM after 24 hrs by luciferase reporter gene assay; type: cell-based
T1 sequence (whole entry): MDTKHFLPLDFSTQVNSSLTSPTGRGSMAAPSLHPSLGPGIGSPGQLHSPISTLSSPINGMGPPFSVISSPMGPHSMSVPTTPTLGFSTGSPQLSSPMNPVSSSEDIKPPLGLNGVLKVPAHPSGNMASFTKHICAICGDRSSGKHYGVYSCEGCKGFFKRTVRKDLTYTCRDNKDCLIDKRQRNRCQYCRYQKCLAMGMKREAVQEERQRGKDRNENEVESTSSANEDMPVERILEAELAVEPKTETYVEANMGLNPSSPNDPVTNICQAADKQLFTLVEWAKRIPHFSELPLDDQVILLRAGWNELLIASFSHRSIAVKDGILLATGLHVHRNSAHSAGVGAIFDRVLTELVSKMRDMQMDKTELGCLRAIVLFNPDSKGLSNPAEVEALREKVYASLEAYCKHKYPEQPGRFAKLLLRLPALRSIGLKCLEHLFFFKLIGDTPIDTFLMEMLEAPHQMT

[2] = molecular target: T1, Retinoic acid receptor RXR-alpha (Homo sapiens); test: Agonist activity at Myc-tagged RXRalpha (unknown origin) expressed in human MCF-7 cells assessed as increase in 9-cis-RA induced receptor transactivation at 5 to 10 uM after 24 hrs by luciferase reporter gene assay; type: cell-based
[3] = molecular target: T1, Retinoic acid receptor RXR-alpha (Homo sapiens); test: Agonist activity at Myc-tagged RXRalpha (unknown origin) expressed in human MCF-7 cells assessed as receptor transactivation at 10 uM after 24 hrs by luciferase reporter gene assay; type: cell-based
[4] = molecular target: T1, Retinoic acid receptor RXR-alpha (Homo sapiens); test: Antagonist activity at Myc-tagged RXRalpha (unknown origin) expressed in human MCF-7 cells assessed as inhibition of 9-cis-RA induced receptor transactivation at 10 uM after 24 hrs by luciferase reporter gene assay; type: cell-based
[5] = molecular target: T2, Retinoic acid receptor RXR-alpha (Homo sapiens, UniProt P19793); test: Binding affinity to RXRalpha-LBD (unknown origin) measured up to 120 sec by surface plasma resonance method
T2 sequence (P19793 whole entry): T1 sequence (whole entry)

[6] = molecular target: T1, Retinoic acid receptor RXR-alpha (Homo sapiens); test: Antagonist activity at Myc-tagged RXRalpha (unknown origin) expressed in human MCF-7 cells assessed as inhibition of 9-cis-RA induced receptor transactivation at 1 uM after 24 hrs by luciferase reporter gene assay; type: cell-based
[7] = molecular target: T1, Retinoic acid receptor RXR-alpha (Homo sapiens); test: Antagonist activity at Myc-tagged RXRalpha (unknown origin) expressed in human MCF-7 cells assessed as inhibition of 9-cis-RA induced receptor transactivation at 100 nM after 24 hrs by luciferase reporter gene assay; type: cell-based
[8] = molecular target: T1, Retinoic acid receptor RXR-alpha (Homo sapiens); test: Antagonist activity at Myc-tagged RXRalpha (unknown origin) expressed in human MCF-7 cells assessed as inhibition of 9-cis-RA induced receptor transactivation after 24 hrs by luciferase reporter gene assay; type: cell-based

| SMILES | inhibition [4] | Kd [5] | further results |
| --- | --- | --- | --- |
| CN(CCOc1ccc(CC2SC(=O)NC2=O)cc1)c1ccccn1 (stereo not drawn) | – | – | Activity [1]: inactive; Activity [2]: Active; Activity [3]: inactive |
| O=C1CCc2cc(OCCCCc3nnnn3C3CCCCC3)ccc2N1 | Active | – | – |
| CC1=C(C)C(=O)C(C(CCCCCC(=O)O)c2ccccc2)=C(C)C1=O (stereo not drawn) | Active | – | – |
| CC[C@H](C)C(=O)O[C@H]1C[C@@H](O)C=C2C=C[C@H](C)[C@H](CC[C@@H](O)C[C@@H](O)CC(=O)O)[C@H]21 | inactive | – | – |
| O=C(O)C[C@H](O)C[C@H](O)/C=C/c1c(C2CC2)nc2ccccc2c1-c1ccc(F)cc1 [PITAVASTATIN CALCIUM] | Active | 13.3 µM | inhibition [6]: Active |
| O=C(O)/C=C/C=C/C=C/c1c(C2CC2)nc2ccccc2c1-c1ccc(F)cc1 | – | 5.12 µM | inhibition [7]: Active |
| Clc1ccc(CCC(Cn2ccnc2)Sc2c(Cl)cccc2Cl)cc1 (stereo not drawn) | Active | – | – |
| CC(C)n1c(/C=C/C(O)CC(O)CC(=O)O)c(-c2ccc(F)cc2)c2ccccc21 (stereo not drawn) [FLUVASTATIN] | Active | 11 µM | inhibition [8]: Dose-dependent effect |
| O=C1[C@H](CC[C@H](O)c2ccc(F)cc2)[C@@H](c2ccc(O)cc2)N1c1ccc(F)cc1 | Active | – | – |
| O=c1[nH]c2ccccc2n1CCCN1CCC(n2c(=O)[nH]c3cc(Cl)ccc32)CC1 [DOMPERIDONE] | – | 8.8 µM | Activity [1]: inactive; Activity [2]: Active; Activity [3]: inactive |
| CC(C)c1nc(N(C)S(C)(=O)=O)nc(-c2ccc(F)cc2)c1/C=C/[C@@H](O)C[C@@H](O)CC(=O)O | Active | – | – |
| O=C1C=CCC(/C=C/c2c(C3CC3)nc3ccccc3c2-c2ccc(F)cc2)O1 (stereo not drawn) | inactive | 138 µM | – |
